Results taken from patent US20250205256A1 (GH RESEARCH IRELAND LIMITED, priority 2022, published 2025).

Tested on: patient with postpartum depression (PPD)
Test: Clinical trial of inhaled 5-MeO-DMT (IDR, 6 mg then 12 mg) in postpartum depression: MADRS
Type: in vivo, human
Details: for Total MADRS score: baseline 29
From the text: The patient completed all planned visit days.

SMILES: COc1ccc2[nH]cc(CCN(C)C)c2c1 [5-MeO-DMT]
- MADRS response (at least 50% improvement) and MADRS remission (total score ≤10) criteria (PPD n=1): fulfilled standard criteria
- time to clinical response after administration (PPD n=1): ≤ 2 h
- time to clinical remission after administration (PPD n=1, IDR): ≤ 2 h
- Total MADRS improvement (PPD n=1, 2 hr vs baseline): 24
- Total MADRS score (PPD n=1, 2 hr): 5
- MADRS Lassitude score (PPD n=1, Day 1, baseline 3): 0
- Total MADRS score (PPD n=1, Day 1): 0
- Total MADRS improvement (PPD n=1, Day 1 vs baseline): 29
- Total MADRS score (PPD n=1, Day 7): 1
- Total MADRS improvement (PPD n=1, Day 7 vs baseline): 28
- durability of clinical response (PPD n=1, single treatment day): sustained over the 7-day follow-up period
